Tests used:
[1] = target: His6-TEV-PDGFRβ (557-1016) (Homo sapiens (Human), UniProt P09619); assay: PDGFRβ HTRF Assay; type: biochemical; conditions: read-out: PDGFR HTRF IC50
Protocol: Instrumentation: a. Compound liquid handling: LabCyte Echo; b. Reagent liquid handling: Thermo Scientific Multidrop Combi; c. BMG PHERAStar multilabel plate reader.
Protein Reagent: His6-TEV-PDGFRβ Protein Prep prepared at Accelagen.
II. Methods and Procedures
Assay buffer stock solution, contains 50 mM Hepes, 10 mM MgCl2, 1 mM EGTA, and 0.01% Brij-35, 0.01% ovalbumin, 2 mM DTT at pH 7.5, in molecular biology grade water. Store at room temperature.
DTT, 2 M in molecular biology grade water, store at −20° C. in aliquots.
Ovalbumin, 10% or 100 mg/mL, prepare fresh on experimental day.
PDGFRβ, 116 μM (PDGFRb_08 Prep 02), produced at Accelagen. Store at −80° C. in aliquots.
TK-biotin peptide, […] in molecular biology grade water, store at −20° C. in aliquots.
ATP, 100 mM in molecular biology grade water, store at −20° C. in aliquots.
HTRF KinEASE-TK kit: Allow the contents of the Cisbio kit to warm up to room temperature before use. This kit contains HTRF detection buffer, TK-Antibody labeled with Eu^3+-cryptate, TK-substrate biotin and Streptavidin-XL665.
TK Substrate-Biotin, reconstitute 500 μg lyopholized with 574 μL molecular biology grade water to prepare a 500 μM stock; After use, aliquot the rest and store at −20° C.
TK Antibody-Cryptate, reconstitute lyophilized with 1 mL of molecular biology grade water (100× solution) then add 99 mL detection buffer to prepare a ready to use TK-antibody-cryptate solution; the concentration of the TK-antibody-cryptate reagent is not known. After use, aliquot the rest and store at −20° C.
Streptavidin-XL665, reconstitute 3 mg lyophilized with 3 mL molecular biology grade water to prepare a 1 mg/mL or 16.67 μM stock; MW=60 kDa; After use, aliquot the rest and store at −20° C.
Freshly Prepared Solutions:
Assay buffer. Dilute 5× Kinase buffer 5-fold with molecular biology grade water and add DTT to 2 mM and ovalbumin to 0.1 mg/mL (or 0.01%).
2× protein solution. Make a working solution of […] PDGFRβ in assay buffer. Keep on ice until use to maintain enzyme stability.
2× substrate solution. Make a working solution of 1.6 mM ATP and 1 μM TK-substrate biotin peptide in assay buffer.
3× quench/detection solution. Make a working solution of 0.1875 μM SA-XL665 and the TK-antibody cryptate diluted by 12 of total quench/detection volume in assay buffer.
Keep final streptavidin/biotin ratio at 1 to 8.
Example of 3× quench/detection solution preparation: 8 mL total volume.
TK antibody-cryptate in detection buffer—4000 μL
The kinase reaction is stopped by the addition of the detection reagents which contain EDTA (detection step).
Assay in white ProxiPlate 384-well
Step 1. Dispensing inhibitors/DMSO and low control: Using the ECHO 555 acoustic dispenser, spot desired compound serial dilutions in DMSO, NEAT DMSO to represent the uninhibited enzyme control, and 10 μM final [imatinib] to the represent the 100% inhibited enzyme control
Step 2. PDGFRβ E+I pre-incubation: Add 2 μL 2× protein solution to columns 1-24 using the Multidrop Combi. Centrifuge at 1000 rpm for 1 min. Incubate 30 min at RT
Step 2. Enzymatic reaction: Add 2 μL substrate solution to columns 1-24 to initiate the reaction using the Multidrop Combi; cover/seal the assay plate to reduce evaporation. Centrifuge at 1000 rpm for 1 min. Incubate at room temperature for 3 hours.
Step 3. Quench/Detection: Add 2 μl 3× quench/detection solution to columns 1-24 using the Multidrop Combi; cover/seal the plate. Centrifuge 1 min 1000 rpm. Incubate at RT for 60 min. Read the plate in PHERAstar (or similar instrument) on HTRF setting at excitation 337 nm—dual emission—665/620 nm ratio.
III. Calculations and Formulas
HTRF ratio values calculated by the instrument (Ratio is acceptor counts/donor counts*10,000) is exported from the plate reader and used in data analysis. […] Assay statistics can include Robust Z′ and Signal to Background.
% Inhibition Calculation: Percent inhibition will be calculated for sample wells based on the equation: […]

[2] = target: Tb-labeled inactive PDGFRβ (Homo sapiens (Human), UniProt P09619); assay: PDGFRβ LanthaScreen Assay; type: binding; conditions: read-out: PDGFR Lantha IC50
VEGFR2, unphosphorylated = VEGFR2, unphosphorylated (Homo sapiens (Human), UniProt P35968); assay: VEGFR ADP GLO Assay; type: biochemical
VEGFR2, unphosphorylated, sequence (P35968 20-1356): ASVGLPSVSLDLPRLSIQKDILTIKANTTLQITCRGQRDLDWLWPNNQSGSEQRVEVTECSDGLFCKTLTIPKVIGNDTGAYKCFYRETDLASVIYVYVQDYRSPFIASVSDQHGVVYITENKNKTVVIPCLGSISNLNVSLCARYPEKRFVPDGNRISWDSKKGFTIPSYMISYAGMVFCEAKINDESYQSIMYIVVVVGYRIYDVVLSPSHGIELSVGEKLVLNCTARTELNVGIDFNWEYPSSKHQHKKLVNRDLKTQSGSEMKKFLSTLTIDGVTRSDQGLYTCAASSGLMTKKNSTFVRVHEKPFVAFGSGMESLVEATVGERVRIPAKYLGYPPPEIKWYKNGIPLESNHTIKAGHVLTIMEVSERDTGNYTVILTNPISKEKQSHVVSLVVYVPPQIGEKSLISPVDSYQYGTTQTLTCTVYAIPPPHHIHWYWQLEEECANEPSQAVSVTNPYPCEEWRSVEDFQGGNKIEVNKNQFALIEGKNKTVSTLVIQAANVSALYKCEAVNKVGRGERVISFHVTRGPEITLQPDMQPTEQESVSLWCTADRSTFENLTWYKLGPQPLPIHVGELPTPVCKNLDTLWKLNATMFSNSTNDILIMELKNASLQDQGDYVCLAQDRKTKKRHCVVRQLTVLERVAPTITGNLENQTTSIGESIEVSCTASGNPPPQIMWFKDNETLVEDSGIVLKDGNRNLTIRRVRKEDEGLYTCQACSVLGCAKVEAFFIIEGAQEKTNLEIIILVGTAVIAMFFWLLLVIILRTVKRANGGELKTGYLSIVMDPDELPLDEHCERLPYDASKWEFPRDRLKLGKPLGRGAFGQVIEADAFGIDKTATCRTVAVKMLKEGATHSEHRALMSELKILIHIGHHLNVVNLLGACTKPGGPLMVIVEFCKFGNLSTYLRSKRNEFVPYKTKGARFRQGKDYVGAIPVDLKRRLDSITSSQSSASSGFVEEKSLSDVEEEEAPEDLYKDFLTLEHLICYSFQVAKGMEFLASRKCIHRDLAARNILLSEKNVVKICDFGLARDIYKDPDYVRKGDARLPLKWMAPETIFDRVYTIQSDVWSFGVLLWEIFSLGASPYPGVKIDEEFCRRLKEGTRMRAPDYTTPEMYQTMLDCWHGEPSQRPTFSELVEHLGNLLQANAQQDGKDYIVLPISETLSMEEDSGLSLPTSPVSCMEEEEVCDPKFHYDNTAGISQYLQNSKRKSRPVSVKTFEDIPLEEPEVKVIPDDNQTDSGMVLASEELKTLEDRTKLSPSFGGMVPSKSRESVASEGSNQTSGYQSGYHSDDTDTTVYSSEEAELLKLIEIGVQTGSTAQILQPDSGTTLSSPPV

His6-TEV-PDGFRβ (557-1016), sequence (P09619 557-1016): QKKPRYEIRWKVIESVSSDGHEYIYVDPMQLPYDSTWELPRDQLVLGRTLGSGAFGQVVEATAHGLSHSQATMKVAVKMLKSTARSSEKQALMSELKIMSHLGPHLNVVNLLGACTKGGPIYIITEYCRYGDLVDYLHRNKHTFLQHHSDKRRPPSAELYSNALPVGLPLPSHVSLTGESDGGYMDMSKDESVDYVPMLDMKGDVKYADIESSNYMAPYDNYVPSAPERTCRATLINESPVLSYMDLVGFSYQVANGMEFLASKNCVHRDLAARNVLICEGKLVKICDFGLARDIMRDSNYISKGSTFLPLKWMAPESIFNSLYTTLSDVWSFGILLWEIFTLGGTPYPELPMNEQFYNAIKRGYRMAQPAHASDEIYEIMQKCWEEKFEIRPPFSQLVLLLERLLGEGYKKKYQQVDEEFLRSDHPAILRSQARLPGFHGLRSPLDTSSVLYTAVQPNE
Tb-labeled inactive PDGFRβ, sequence (P09619 33-1106): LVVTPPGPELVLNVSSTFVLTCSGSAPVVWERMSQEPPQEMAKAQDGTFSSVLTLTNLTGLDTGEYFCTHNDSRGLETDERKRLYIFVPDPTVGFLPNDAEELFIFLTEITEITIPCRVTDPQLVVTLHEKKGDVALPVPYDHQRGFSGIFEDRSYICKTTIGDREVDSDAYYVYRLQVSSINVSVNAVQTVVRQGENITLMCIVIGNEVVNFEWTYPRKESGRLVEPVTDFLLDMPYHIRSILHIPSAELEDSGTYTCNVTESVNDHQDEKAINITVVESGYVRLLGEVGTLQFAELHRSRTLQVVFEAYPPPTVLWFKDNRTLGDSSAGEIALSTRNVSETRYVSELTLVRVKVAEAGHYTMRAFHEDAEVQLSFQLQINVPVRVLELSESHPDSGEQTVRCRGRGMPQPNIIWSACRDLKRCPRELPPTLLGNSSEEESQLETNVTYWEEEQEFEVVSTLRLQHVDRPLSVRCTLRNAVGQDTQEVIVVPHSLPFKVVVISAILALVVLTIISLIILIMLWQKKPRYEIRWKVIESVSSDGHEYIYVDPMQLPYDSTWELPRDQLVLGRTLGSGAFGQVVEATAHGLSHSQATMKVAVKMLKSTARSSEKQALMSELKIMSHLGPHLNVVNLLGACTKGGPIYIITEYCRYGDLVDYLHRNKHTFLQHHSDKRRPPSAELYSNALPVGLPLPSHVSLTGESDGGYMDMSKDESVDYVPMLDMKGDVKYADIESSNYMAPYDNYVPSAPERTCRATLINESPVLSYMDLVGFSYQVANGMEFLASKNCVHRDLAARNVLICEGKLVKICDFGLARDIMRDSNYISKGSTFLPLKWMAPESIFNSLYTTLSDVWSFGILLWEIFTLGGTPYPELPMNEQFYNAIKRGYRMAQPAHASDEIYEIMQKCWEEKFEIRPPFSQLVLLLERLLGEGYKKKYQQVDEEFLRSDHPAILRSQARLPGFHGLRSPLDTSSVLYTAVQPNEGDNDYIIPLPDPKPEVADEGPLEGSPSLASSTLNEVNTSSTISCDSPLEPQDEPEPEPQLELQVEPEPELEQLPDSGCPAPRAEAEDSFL

## Cc1ncc(C(=O)NCCN2CCCC2(C)C)cc1NC(=O)c1cnn2cc(-c3ccn(C)n3)sc12 [Example 9, N-(5-((2-(2,2-dimethylpyrrolidin-1-yl)ethyl)carbamoyl)-2-methylpyridin-3-yl)-2-(1-methyl-1H-pyrazol-3-yl)pyrazolo[5,1-b]thiazole-7-carboxamide]
[1]
  IC50: 0.3 nM
[2]
  IC50: 3.5 nM
VEGFR2, unphosphorylated
  IC50: > 7500 nM

## Cc1ncc(C(=O)NCCN2CCC3(CC3)C2)cc1NC(=O)c1cnn2cc(-c3ccccn3)sc12 [Example 160, N-(5-((2-(5-azaspiro[2.4]heptan-5-yl)ethyl)carbamoyl)-2-methylpyridin-3-yl)-2-(pyridin-2-yl)pyrazolo[5,1-b]thiazole-7-carboxamide]
[1]
  IC50: 0.2 nM
[2]
  IC50: 4.4 nM
VEGFR2, unphosphorylated
  IC50: > 7500 nM

## Cc1ncc(C(=O)NCCN2CCOCC23CCC3)cc1NC(=O)c1cnn2cc(-c3cnn(C)c3)sc12 [Example 117, N-(5-((2-(8-oxa-5-azaspiro[3.5]nonan-5-yl)ethyl)carbamoyl)-2-methylpyridin-3-yl)-2-(1-methyl-1H-pyrazol-4-yl)pyrazolo[5,1-b]thiazole-7-carboxamide]
[1]
  IC50: 0.4 nM
[2]
  IC50: 2.3 nM
VEGFR2, unphosphorylated
  IC50: > 7500 nM

## Cc1ncc(C(=O)NCCN2CCC(F)(F)CC2)cc1NC(=O)c1cnn2cc(-c3cccnc3)sc12 [Example 157, N-(5-((2-(4,4-difluoropiperidin-1-yl)ethyl)carbamoyl)-2-methylpyridin-3-yl)-2-(pyridin-3-yl)pyrazolo[5,1-b]thiazole-7-carboxamide]
[1]
  IC50: 0.6 nM
[2]
  IC50: 5.9 nM
VEGFR2, unphosphorylated
  IC50: > 7500 nM

## CC(=O)N1CCN(CCNC(=O)c2cnc(C)c(NC(=O)c3cnn4cc(-c5cnn(C)c5)sc34)c2)CC1 [Example 129, N-(5-((2-(4-acetylpiperazin-1-yl)ethyl)carbamoyl)-2-methylpyridin-3-yl)-2-(1-methyl-1H-pyrazol-4-yl)pyrazolo[5,1-b]thiazole-7-carboxamide]
[1]
  IC50: 2.9 nM
[2]
  IC50: 87.1 nM
VEGFR2, unphosphorylated
  IC50: > 7500 nM

## Cc1ncc(C(=O)NCCN2CC(C)(C)C2)cc1NC(=O)c1cnn2cc(-c3cnn(C)c3)sc12 [Example 126, N-(5-((2-(3,3-dimethylazetidin-1-yl)ethyl)carbamoyl)-2-methylpyridin-3-yl)-2-(1-methyl-1H-pyrazol-4-yl)pyrazolo[5,1-b]thiazole-7-carboxamide]
[1]
  IC50: 0.3 nM
[2]
  IC50: 10.3 nM
VEGFR2, unphosphorylated
  IC50: > 7500 nM

## Cc1ncc(C(=O)NCCN2CC3CCC2CC3)cc1NC(=O)c1cnn2cc(-c3cn(C)nc3C)sc12 [Example 178, N-(5-((2-(2-azabicyclo[2.2.2]octan-2-yl)ethyl)carbamoyl)-2-methylpyridin-3-yl)-2-(1,3-dimethyl-1H-pyrazol-4-yl)pyrazolo[5,1-b]thiazole-7-carboxamide]
[1]
  IC50: 0.2 nM
[2]
  IC50: 1.8 nM
VEGFR2, unphosphorylated
  IC50: > 7500 nM

## Cc1ncc(C(=O)NCCN2CCC3(CC3)C2)cc1NC(=O)c1cnn2cc(-c3cnn(C)c3C)sc12 [Example 170, N-(5-((2-(5-azaspiro[2.4]heptan-5-yl)ethyl)carbamoyl)-2-methylpyridin-3-yl)-2-(1,5-dimethyl-1H-pyrazol-4-yl)pyrazolo[5,1-b]thiazole-7-carboxamide]
[1]
  IC50: 0.3 nM
[2]
  IC50: 4.1 nM
VEGFR2, unphosphorylated
  IC50: > 7500 nM

## CC(=O)Nc1ccnc(-c2cn3ncc(C(=O)Nc4cc(C(=O)NCCN5CC6CCC5CC6)cnc4C)c3s2)c1 [Example 146, N-(5-((2-(2-azabicyclo[2.2.2]octan-2-yl)ethyl)carbamoyl)-2-methylpyridin-3-yl)-2-(4-acetamidopyridin-2-yl)pyrazolo[5,1-b]thiazole-7-carboxamide]
[1]
  IC50: 0.6 nM
[2]
  IC50: 4.3 nM
VEGFR2, unphosphorylated
  IC50: > 7500 nM

## COCCn1cc(-c2cn3ncc(C(=O)Nc4cc(C(=O)NCCN5CC(C)(C)C5)cnc4C)c3s2)cn1 [Example 166, N-(5-((2-(3,3-dimethylazetidin-1-yl)ethyl)carbamoyl)-2-methylpyridin-3-yl)-2-(1-(2-methoxyethyl)-1H-pyrazol-4-yl)pyrazolo[5,1-b]thiazole-7-carboxamide]
[1]
  IC50: 0.7 nM
[2]
  IC50: 13.9 nM
VEGFR2, unphosphorylated
  IC50: > 7500 nM

## Cc1ncc(NC(=O)CCN2CCCC23CC3)cc1NC(=O)c1cnn2cc(-c3cnn(C)c3)sc12 [Example 98]
[1]
  IC50: 0.3 nM
[2]
  IC50: 2.9 nM
VEGFR2, unphosphorylated
  IC50: > 7500 nM

## Cc1ncc(C(=O)NCCN2CCC3(CC3)C2)cc1NC(=O)c1cnn2cc(-c3cnn(C)c3)sc12 [Example 118, N-(5-((2-(5-azaspiro[2.4]heptan-5-yl)ethyl)carbamoyl)-2-methylpyridin-3-yl)-2-(1-methyl-1H-pyrazol-4-yl)pyrazolo[5,1-b]thiazole-7-carboxamide]
[1]
  IC50: 0.3 nM
[2]
  IC50: 7.1 nM
VEGFR2, unphosphorylated
  IC50: > 7500 nM

## COCCN(CCNC(=O)c1cnc(C)c(NC(=O)c2cnn3cc(-c4cnn(C)c4)sc23)c1)C1CCC1 [Example 115, N-(5-((2-(cyclobutyl(2-methoxyethyl)amino)ethyl)carbamoyl)-2-methylpyridin-3-yl)-2-(1-methyl-1H-pyrazol-4-yl)pyrazolo[5,1-b]thiazole-7-carboxamide]
[1]
  IC50: 0.4 nM
[2]
  IC50: 4.7 nM
VEGFR2, unphosphorylated
  IC50: > 7500 nM

## Cc1ncc(C(=O)NCCN2CCCC2(C)C)cc1NC(=O)c1cnn2cc(-c3cn(C)nc3C)sc12 [Example 174, 2-(1,3-dimethyl-1H-pyrazol-4-yl)-N-(5-((2-(2,2-dimethylpyrrolidin-1-yl)ethyl)carbamoyl)-2-methylpyridin-3-yl)pyrazolo[5,1-b]thiazole-7-carboxamide]
[1]
  IC50: 0.3 nM
[2]
  IC50: 2.5 nM
VEGFR2, unphosphorylated
  IC50: > 7500 nM

## Cc1ncc(C(=O)NCCN2CC3CCC2CC3)cc1NC(=O)c1cnn2cc(-c3ccncc3)sc12 [Example 148, N-(5-((2-(2-azabicyclo[2.2.2]octan-2-yl)ethyl)carbamoyl)-2-methylpyridin-3-yl)-2-(pyridin-4-yl)pyrazolo[5,1-b]thiazole-7-carboxamide]
[1]
  IC50: 0.3 nM
[2]
  IC50: 4.2 nM
VEGFR2, unphosphorylated
  IC50: > 7500 nM

## COCCn1cc(-c2cn3ncc(C(=O)Nc4cc(NC(=O)CCN5CC6CCC5CC6)cnc4C)c3s2)cn1 [Example 100, N-(5-(3-(2-azabicyclo[2.2.2]octan-2-yl)propanamido)-2-methylpyridin-3-yl)-2-(1-(2-methoxyethyl)-1H-pyrazol-4-yl)pyrazolo[5,1-b]thiazole-7-carboxamide]
[1]
  IC50: 0.5 nM
[2]
  IC50: 7.5 nM
VEGFR2, unphosphorylated
  IC50: > 7500 nM

## Cc1ncc(C(=O)NCCN2CCCC(F)(F)C2)cc1NC(=O)c1cnn2cc(-c3cnn(C)c3)sc12 [Example 123, N-(5-((2-(3,3-difluoropiperidin-1-yl)ethyl)carbamoyl)-2-methylpyridin-3-yl)-2-(1-methyl-1H-pyrazol-4-yl)pyrazolo[5,1-b]thiazole-7-carboxamide]
[1]
  IC50: 0.3 nM
[2]
  IC50: 2.7 nM
VEGFR2, unphosphorylated
  IC50: > 7500 nM

## Cc1ncc(NC(=O)CCN2CCCC2(C)C)cc1NC(=O)c1cnn2cc(-c3ccnn3C)sc12 [Example 11, N-(5-(3-(2,2-dimethylpyrrolidin-1-yl)propanamido)-2-methyl-pyridin-3-yl)-2-(1-methyl-1H-pyrazol-5-yl)pyrazolo[5,1-b]thiazole-7-carboxamide]
[1]
  IC50: 0.5 nM
[2]
  IC50: 5 nM
VEGFR2, unphosphorylated
  IC50: > 7500 nM

From US20240109917A1 (ACTELION PHARMACEUTICALS LTD, priority 2020, published 2024)
